# Values of other authors in patent US4430326A (University Patents, Inc., priority 1981, dated 1984).
# Key:
# [1] = test system: glycogenolytic stimulation; conditions: Cote, et al.
# [2] = test system: adenylate cyclase system; conditions: literature reports
substance,measurement,setting,value
N^α -trinitrophenyl glucagon,reported action toward glycogenolytic stimulation,[1],partial agonist
"N^α,N^ε -di(trinitrophenyl)-glucagon",reported action on adenylate cyclase activity (agonist / antagonist),[2],agonists
[12-homoargine]glucagon,reported action on adenylate cyclase activity (agonist / antagonist),[2],full agonist
